Results: patent publication US7566722B2, “Triazolopyrimidine derivatives as ADP P2Y12 receptor antagonists” (Janssen Pharmaceutica, N.V., priority 2006, dated 2009)

Experiments:
[1] = molecular target: T1, ADP P2Y12 receptor (Homo sapiens, UniProt Q9H244); test: FLIPR calcium assay transducing Gi-coupled signaling to the Gq pathway (inhibition of ADP-induced calcium mobilization); type: cell-based; settings: HEK 293 cells co-transfected with P2Y12 and Gqi5, ADP at EC60-70 dose
T1 construct: expressed in transfected cells
T1 sequence (Q9H244 whole entry): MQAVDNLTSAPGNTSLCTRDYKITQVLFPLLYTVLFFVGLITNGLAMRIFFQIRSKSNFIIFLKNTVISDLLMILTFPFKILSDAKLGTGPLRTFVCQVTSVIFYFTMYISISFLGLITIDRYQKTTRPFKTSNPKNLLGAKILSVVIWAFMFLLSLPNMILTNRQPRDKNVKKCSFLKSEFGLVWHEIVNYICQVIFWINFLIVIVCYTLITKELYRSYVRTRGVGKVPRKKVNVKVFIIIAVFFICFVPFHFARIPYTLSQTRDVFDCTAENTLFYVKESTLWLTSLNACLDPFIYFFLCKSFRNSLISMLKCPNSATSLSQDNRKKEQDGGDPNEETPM
Description: A FLIPR Calcium Assay Transducing Gi-Coupled Signaling to the Gq Pathway
The ADP P2Y12 subtype is a Gi coupled GPCR, which mediates inhibition of adenylate cyclase leading to decreased cAMP while Gq proteins primarily activate phospholipase C, which stimulates inositol-1,4,5-triphosphate (IP3) formation and a subsequent increase in intracellular Ca^2+ concentration, which can be easily measured by FLIPR. Prior to the development of a method to convert a Gi coupled GPCR signaling to a Gq coupled GPCR signaling, a significant barrier existed for the functional testing and screening of Gi coupled GPCRs. One popular method, GTPγS migration, is slow, produces a small signal and generates radioactive waste. The discovery that a small switch in the amino acid sequence in the Gi protein could convert it to a protein mediating a Gq coupled response has led to the development of robust, high throughput assays for this valuable receptor subtype.
The FLIPR-based HTS assay transducing the Gi signaling to the Gq pathway is described below.
pcDNA3hygroP2Y12 containing a hygromycin resistance gene and pLEC1-Gqi5-HA containing a neomycin resistance gene (licensed from Molecular Devices, Sunnyvale, Calif.) were co-transfected into Human embryonic kidney (HEK) 293 cells with SuperFect (Qiagen, Valencia, Calif.). Cell clones were selected in the presence of 600 μg/ml hygromycin B (Life Technologies, Carlsbad, Calif.) and 1 mg/ml of G418 (Mediatech, Herndon, Va.). Drug resistant colonies were picked and screened by FLIPR and the gene expression was further confirmed by RT-PCR. Positive clones were maintained in growth medium (DMEM supplemented with 10% FBS, 1× p/s) containing 400 μg/ml of G418 and 200 μg/ml of hygromycin.
The day before the assay, cells are seeded in clear, flat-bottom black-wall, tissue culture treated polystyrene 96- or 384-well plates and incubated at 37° C., 5% CO2. 50 μl of complete dye loading solution (FLIPR Calcium Assay Kit, Molecular Devices) was added to each well containing 100 μl of culture media. The cells were incubated for at least 30 min at 37° C., in 5% CO2 before initiating the assay on the FLIPR. The agonist effect of ADP was tested and EC50 was determined prior to compound testing. The EC60-70 dose was used.
The antagonist compounds were prepared at 4× and the agonists were diluted at 5× the concentration desired in the test wells, and then aliquoted into the sample plates. The sample plates and the cell plate were placed in the FLIPR assay chamber. A first addition (50 μl) was made at the start of reading and a second addition (50 μl) was made after 5 min of reading. Raw fluorescence data was exported for each well and tabulated versus time within an ASCII file. Data was then imported into Excel and the peak response over the basal level was determined. The percent inhibition for each compound was calculated by the change in fluorescent density as a % inhibition of the control ADP response to obtain an IC50, as shown in Table 1 (wherein N/A means Not Applicable).

[2] = molecular target: T2, P2Y12 receptor (Homo sapiens, UniProt Q9H244); test: Whole cell receptor binding assay, 2-MeS[3H]-ADP; settings: HEK 293 cells stably transfected with P2Y12; 2-MeS[3H]-ADP 3 nM; 30 min at 37° C.; read-out: Inhibition of Receptor Binding (IC50 μM)
T2 construct: expressed in transfected cells
T2 sequence (Q9H244 whole entry): as above
Experimental: A whole cell-binding assay for 2-MeS [^3H]-ADP (Custom synthesized by Amersham BioScience, Piscataway, N.J.) to the P2Y12 receptor was performed.
A P2Y12 cDNA containing hygromycin resistant gene was transfected in HEK 293 cells. A stable cell line was obtained by a cloning selection method. The cells were cultured in DMEM supplemented with 10% FBS and 1× of p/s.
On the day of the assay, the cells were harvested and resuspended in 0.25% BSA-DMEM and adjusted to a cell concentration of 1.6×10^6/ml. 15 μl of each compound was mixed with 120 μl of cell suspension in 96 well assay plates and incubated for 5 min prior to the addition of the radio-labeled ligand 2-MeS[^3H]-ADP (3 nM final in 0.25% BSA-DMEM) or unlabeled […] (for non-specific binding). The reaction was then incubated for 30 min at 37° C. and stopped by adding cold DMEM. The labeled and unlabeled cells were separated by a filtration method using a Packard Filtermate 196 on to the unfilter-96 GF/B plate. The plates were dyed in a 37° C. oven for 1-2 hours and 50 μl of MicroScint-20 (PerkinElmer) was added to each well. The radioactivity was measured using a TOPCOUNT beta counter (Packard). The percent inhibition for each compound was calculated by the change in radioactivity as a % inhibition of the control to obtain an IC50, as shown in Table 2.

[3] = tested on: platelets; test: In vitro platelet aggregation (ADP-induced, washed platelets); type: cell-based; settings: Homo sapiens, washed platelets from healthy volunteers, agonist giving 60-70% aggregation, % inhibition of control ADP response
Experimental: Platelet aggregation studies were performed according to a published method (Bednar, B., Condra, C., Gould, R. J., and Connolly, T. M., Throm. Res., 77:453-463 (1995). Platelet-rich plasma (PRP) concentrates prepared from healthy volunteers who were aspirin free for at least 7 days by venipuncture using ACD-A as anticoagulant was purchased from Biological Specialties, Inc. (Colmar, Pa.). PRP was centrifuged at 730 g for 15 min. The platelet pellet was washed twice in CGS buffer (13 mM sodium citrate, 30 mM glucose, 120 mM NaCl, pH 6.5) containing 1 μ/ml apyrase (grade V, Sigma-Aldrich, St. Louis, Mo.), 1 mM EGTA, and resuspended in Tyrode's buffer (140 mM NaCl, 2.7 mM KCl, 12 mM NaHCO3, 0.76 mM Na2HPO4, 5.5 mM dextrose, 5.0 mM Hepes, 0.2% BSA, pH 7.4). The platelets were diluted to 3×10^8 platelets/ml and kept >45 min at 37° C. before use. 105 μl of washed platelets, 2 mM CaCl2 and […] of fibrinogen were added to a 96-well microliter plate.
Platelet aggregation was initiated by the addition of serial concentrations of ADP (BioData Corp. Horsham, Pa.). Buffer was added to one set of control wells. The assay plate was stirred constantly and intermittently placed in a microplate reader (Softmax, Molecular Devices, Menlo Park, Calif.) to read optical density (650 nm) at 0 and 5 minutes after the addition of the compound solutions. Aggregation was calculated as the decrease in optical density between the time 0- and 5-min measurements and expressed as % of aggregation. For the inhibition assay, platelet aggregation was conducted as described above except for compound additions. Test compounds were prepared in 100% DMSO and stored.
On the day of the assay, test compounds were diluted in the buffer containing 3% of DMSO as a 10× working solution. 15 μl of compound solutions were added to 105 μl of platelets 5 min prior to the addition of CaCl2 and fibrinogen.

Structure (SMILES) | IC50 [1] [µM] | IC50 [2] [µM] | IC50 [3] [µM]
CCCCNc1nc(SCCC)nc2c1nnn2[C@@H]1C[C@H](c2nnc(C)[nH]2)[C@@H](O)[C@H]1O [Cpd 13, (1R,2S,3R,5R)-3-(7-butylamino-5-propylsulfanyl-[1,2,3]triazolo[4,5-d]pyrimidin-3-yl)-5-(5-methyl-4H-[1,2,4]triazol-3-yl)-cyclopentane-1,2-diol] | 2.17 | 2.16 | 1.39
CCCSc1nc(N[C@@H]2C[C@H]2c2ccccc2)c2nnn([C@@H]3C[C@H](Cn4cnnn4)[C@@H](O)[C@H]3O)c2n1 (mixture of isomers) [Cpd 4, (1R,2S,3R,5R)-3-{7-[(1RS,2SR)-2-phenyl-cyclopropylamino]-5-propylsulfanyl-[1,2,3]triazolo[4,5-d]pyrimidin-3-yl}-5-tetrazol-1-ylmethyl-cyclopentane-1,2-diol] | 0.799 | 0.371 | 1.15
CCCSc1nc(NCCSC)c2nnn([C@@H]3C[C@H](c4nnc(C)[nH]4)[C@@H](O)[C@H]3O)c2n1 [Cpd 19, (1R,2S,3R,5R)-3-[7-(2-methylsulfanyl-ethylamino)-5-propylsulfanyl-[1,2,3]triazolo[4,5-d]pyrimidin-3-yl]-5-(5-methyl-4H-[1,2,4]triazol-3-yl)-cyclopentane-1,2-diol] | > 30 | 5.09 | > 30
CCCSc1nc(N[C@@H]2C[C@H]2c2ccccc2)c2nnn([C@@H]3C[C@H](Cn4nccn4)[C@@H](O)[C@H]3O)c2n1 (mixture of isomers) [Cpd 6, (1R,2S,3R,5R)-3-{7-[(1RS,2SR)-2-phenyl-cyclopropylamino]-5-propylsulfanyl-[1,2,3]triazolo[4,5-d]pyrimidin-3-yl}-5-[1,2,3]triazol-2-ylmethyl-cyclopentane-1,2-diol] | 0.98 | 0.437 | 0.954
CCCSc1nc(NC[C@@H]2CCCO2)c2nnn([C@@H]3C[C@H](c4nnn[nH]4)[C@@H](O)[C@H]3O)c2n1 [Cpd 9, (1R,2S,3R,5R)-3-(5-propylsulfanyl-7-{[(2S)-tetrahydro-furan-2-ylmethyl]-amino}-[1,2,3]triazolo[4,5-d]pyrimidin-3-yl)-5-(1H-tetrazol-5-yl)-cyclopentane-1,2-diol] | 2.02 | 0.237 | 4.37
CCCSc1nc(NCC(F)(F)F)c2nnn([C@@H]3C[C@H](c4nnc(C)[nH]4)[C@@H](O)[C@H]3O)c2n1 [Cpd 18, (1S,2R,3R,5R)-3-(5-methyl-4H-[1,2,4]triazol-3-yl)-5-[5-propylsulfanyl-7-(2,2,2-trifluoro-ethylamino)-[1,2,3]triazolo[4,5-d]pyrimidin-3-yl]-cyclopentane-1,2-diol] | > 30 | 6.2 | > 30

Now those with a lower IC50 [1], led by results:

IC50 [1] [µM] | IC50 [2] [µM] | Structure (SMILES) | IC50 [3] [µM]
0.155 | 0.0659 | CCCSc1nc(N[C@@H]2C[C@H]2c2ccccc2)c2nnn([C@@H]3C[C@H](c4nnc[nH]4)[C@@H](O)[C@H]3O)c2n1 (mixture of isomers) [Cpd 21, (1R,2S,3R,5R)-3-{7-[(1RS,2SR)-2-phenyl-cyclopropylamino]-5-propylsulfanyl-[1,2,3]triazolo[4,5-d]pyrimidin-3-yl}-5-(4H-[1,2,4]triazol-3-yl)-cyclopentane-1,2-diol] | 0.046
0.264 | 0.061 | CCCSc1nc(N[C@H]2C[C@@H]2c2ccccc2)c2nnn([C@@H]3C[C@H](c4nnn[nH]4)[C@@H](O)[C@H]3O)c2n1 [Cpd 23, (1R,2S,3R,5R)-3-{7-[(1S,2R)-2-phenyl-cyclopropylamino]-5-propylsulfanyl-[1,2,3]triazolo[4,5-d]pyrimidin-3-yl}-5-(1H-tetrazol-5-yl)-cyclopentane-1,2-diol] | 0.04
0.045 | 0.0137 | CCCCNc1nc(SCCC)nc2c1nnn2[C@@H]1C[C@H](c2nnn[nH]2)[C@@H](O)[C@H]1O [Cpd 2, (1R,2S,3R,5R)-3-(7-butylamino-5-propylsulfanyl-[1,2,3]triazolo[4,5-d]pyrimidin-3-yl)-5-(1H-tetrazol-5-yl)-cyclopentane-1,2-diol] | 0.315
0.265 | 0.735 | CCCSc1nc(N[C@@H]2C[C@H]2c2ccccc2)c2nnn([C@@H]3C[C@H](c4nnc(C)[nH]4)[C@@H](O)[C@H]3O)c2n1 (mixture of isomers) [Cpd 14, (1S,2R,3R,5R)-3-(5-methyl-4H-[1,2,4]triazol-3-yl)-5-{7-[(1RS,2SR)-2-phenyl-cyclopropylamino]-5-propylsulfanyl-[1,2,3]triazolo[4,5-d]pyrimidin-3-yl}-cyclopentane-1,2-diol] | 0.064
0.542 | 0.139 | CCCSc1nc(NCC2CC2)c2nnn([C@@H]3C[C@H](c4nnn[nH]4)[C@@H](O)[C@H]3O)c2n1 [Cpd 10, (1R,2S,3R,5R)-3-[7-(cyclopropylmethyl-amino)-5-propylsulfanyl-[1,2,3]triazolo[4,5-d]pyrimidin-3-yl]-5-(1H-tetrazol-5-yl)-cyclopentane-1,2-diol] | 1.54
0.037 | 0.0043 | CCCSc1nc(N[C@@H]2C[C@H]2c2ccccc2)c2nnn([C@@H]3C[C@H](c4nnn[nH]4)[C@@H](O)[C@H]3O)c2n1 (mixture of isomers) [Cpd 1, (1R,2S,3R,5R)-3-{7-[(1RS,2SR)-2-phenyl-cyclopropylamino]-5-propylsulfanyl-[1,2,3]triazolo[4,5-d]pyrimidin-3-yl}-5-(1H-tetrazol-5-yl)-cyclopentane-1,2-diol] | 0.037
